For one series, the target named is T1, CCR2 (Homo sapiens, UniProt P41597).
T1 construct: expressed in transfected cells; host or cells: HEK293, clone C7, passage P6
Description: CCR2 in vitro test: intracellular calcium signal detected by FLIPR. In kind it is cell-based. The note with it: HEK293 cells expressing CCR2, agonist MCP-1 at EC80, calcium signal. In short, it runs like this:
(§1)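 Receptor-expressing cells loaded with Fluo-4 Direct and probenecid (2.5 mM final), then preincubated with compounds (11-point 1:3 series) before challenge at EC80 of agonist (MCP-1 for CCR2, RANTES for CCR5). FLIPR calcium max−min signal; IC50 fitted.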

The target in the next series is T2, CCR5 (Homo sapiens, UniProt P51681).
T2 construct: expressed in transfected cells; host or cells: HEK293, clone C13, passage P4
Description: CCR5 in vitro test: intracellular calcium signal detected by FLIPR. In kind it is cell-based. Particulars: HEK293 cells expressing CCR5, agonist RANTES at EC80, calcium signal. The method in brief: as §1
A general note: Calcium assays in cells follow changes in intracellular calcium, usually with a dye or a luminescent sensor.

Series [1] in a line: Comparative pharmacokinetics study in rats. In kind it is in vivo, SD male rats. Particulars: rat. How it is done: Experimental Example 2: Comparative Pharmacokinetics Study in Rats
SD male rats were used as the test animals in this study. The drug concentrations in plasma of the rats by intravenous or oral administration of test compounds WX017, WX047, WX079, WX088 and reference compound at different time points were quantitatively determined by LC/MS/MS, which were used to evaluate the pharmacokinetic profile of the two test drugs in rats.
A clear solution of the test compound was injected into SD rats via the tail vein (overnight fasting, 7-10 weeks old), and the test compound was orally administered to the SD rats (overnight fasting, 7-10 weeks old). Approximately 200 μL of blood was collected from the jugular vein or tail vein of the animals 0.0833, 0.25, 0.5, 1, 2, 4, 6, 8 and 24 hours after administration, and was placed in an anticoagulant tube containing EDTA-K2. The plasma was collected by centrifugation at 3000 g for 15 minutes at 4° C. The plasma concentration was determined by LC-MS/MS. The pharmacokinetic parameters were calculated by the non-compartment model linear logarithmic trapezoidal method using WinNonlin™ Version 6.3 (Pharsight, Mountain View, Calif.) pharmacokinetic software.

The target in another series is T3, CYP1A2 (Homo sapiens, UniProt P05177).
T3 construct: from tissue; host or cells: human liver microsomes
T3 sequence (P05177 1-516): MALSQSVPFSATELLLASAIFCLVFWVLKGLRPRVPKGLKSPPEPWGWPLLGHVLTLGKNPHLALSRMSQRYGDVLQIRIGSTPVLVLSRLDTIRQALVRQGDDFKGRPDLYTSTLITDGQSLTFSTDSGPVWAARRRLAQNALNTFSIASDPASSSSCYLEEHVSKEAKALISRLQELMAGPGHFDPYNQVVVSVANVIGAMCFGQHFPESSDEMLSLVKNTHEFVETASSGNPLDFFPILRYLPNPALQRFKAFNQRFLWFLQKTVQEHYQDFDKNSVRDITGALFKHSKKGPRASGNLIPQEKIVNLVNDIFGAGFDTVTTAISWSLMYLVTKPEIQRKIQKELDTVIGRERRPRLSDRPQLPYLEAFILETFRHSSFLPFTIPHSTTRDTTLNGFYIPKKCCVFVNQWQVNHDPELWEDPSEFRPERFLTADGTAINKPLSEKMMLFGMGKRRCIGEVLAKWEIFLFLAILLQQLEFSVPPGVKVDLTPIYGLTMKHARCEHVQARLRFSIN
Description: Inhibition of human liver microsomal CYP1A2 (phenacetin probe). In kind it is in vitro ADME. The note with it: human liver microsomes. How it is done:
(§2) Experimental Example 4 Inhibition Effect on the Activity of Human Liver Microsomal Cytochrome P450 Isoezymes (CYP1A2, CYP2C9, CYP2C19, CYP2D6 and CYP3A4)
(§3) A total of 5 specific probe substrates for CYP's five isozymes, Phenacetin (CYP1A2), Diclofenac (CYP2C9), […] (S)-Mephenytoin, CYP2C19), Dextromethorphan (CYP2D6) and Midazolam (CYP3A4) were incubated with human liver microsomes and test compounds, respectively, and reduced nicotinamide adenine dinucleotide phosphate (NADPH) was added to initiate the reaction. After the reaction, the sample was processed and liquid chromatography tandem mass spectrometry (LC-MS/MS) was used to quantitatively detect the […] metabolites produced by the specific substrate, Acetaminophen and 4′-hydroxydiclofenac, 4′-hydroxymephenytoin, Dextrorphan and 1′-hydroxymidazolam, in order to calculate the corresponding half maximal inhibitory concentration (IC50).
In general terms: Microsomes from liver hold many membrane-bound enzymes, among them those of drug oxidation.

The target of the next series is T4, CYP2C9 (Homo sapiens, UniProt P11712).
T4 construct: from tissue; host or cells: human liver microsomes
Description: Inhibition of human liver microsomal CYP2C9 (diclofenac probe). In kind it is in vitro ADME. The note with it: human liver microsomes. As for the experimental part: as §2, §3

The target of a further series is T5, CYP2C19 (Homo sapiens, UniProt P33261).
T5 construct: from tissue; host or cells: human liver microsomes
As to the kind of experiment: Inhibition of human liver microsomal CYP2C19 ((S)-mephenytoin probe). The format is in vitro ADME. The note with it: human liver microsomes. How it is done: as §2, §3

Another series addresses T6, CYP2D6 (Homo sapiens, UniProt P10635).
T6 construct: from tissue; host or cells: human liver microsomes
Description: Inhibition of human liver microsomal CYP2D6 (dextromethorphan probe). In kind it is in vitro ADME. The note with it: human liver microsomes. As for the experimental part: as §2, §3

Another series concerns the target T7, CYP3A4 (Homo sapiens, UniProt P08684).
T7 construct: from tissue; host or cells: human liver microsomes
As to the kind of experiment: Inhibition of human liver microsomal CYP3A4 (midazolam probe). In kind it is in vitro ADME. The note with it: human liver microsomes, probe midazolam. How it is done: as §2, §3

Series [2] relates to human liver microsomal cytochrome P450 isoenzymes. As to the kind of experiment: Inhibition of human liver microsomal cytochrome P450 isoenzymes, overall conclusion. The format is in vitro ADME. Particulars: human liver microsomes. As for the experimental part: as §2, §3
The mark [3] stands for this setting: male, Sprague-Dawley (SD), plasma, intravenous injection 2 mg/kg.

SMILES strings stand for the structures.

T6 sequence (P10635 whole entry): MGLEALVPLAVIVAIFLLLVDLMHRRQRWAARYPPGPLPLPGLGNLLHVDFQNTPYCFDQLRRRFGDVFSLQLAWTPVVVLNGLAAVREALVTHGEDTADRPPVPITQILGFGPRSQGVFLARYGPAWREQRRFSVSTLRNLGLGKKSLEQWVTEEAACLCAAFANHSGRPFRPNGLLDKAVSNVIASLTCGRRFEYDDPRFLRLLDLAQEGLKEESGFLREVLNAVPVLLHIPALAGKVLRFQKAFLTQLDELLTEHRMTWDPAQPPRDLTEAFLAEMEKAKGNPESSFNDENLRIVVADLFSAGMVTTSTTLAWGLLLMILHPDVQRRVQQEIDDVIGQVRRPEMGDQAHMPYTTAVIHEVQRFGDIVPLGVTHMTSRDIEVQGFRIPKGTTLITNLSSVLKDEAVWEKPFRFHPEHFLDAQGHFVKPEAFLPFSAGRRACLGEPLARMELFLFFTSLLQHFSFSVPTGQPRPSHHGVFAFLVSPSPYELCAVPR
T7 sequence (P08684 whole entry): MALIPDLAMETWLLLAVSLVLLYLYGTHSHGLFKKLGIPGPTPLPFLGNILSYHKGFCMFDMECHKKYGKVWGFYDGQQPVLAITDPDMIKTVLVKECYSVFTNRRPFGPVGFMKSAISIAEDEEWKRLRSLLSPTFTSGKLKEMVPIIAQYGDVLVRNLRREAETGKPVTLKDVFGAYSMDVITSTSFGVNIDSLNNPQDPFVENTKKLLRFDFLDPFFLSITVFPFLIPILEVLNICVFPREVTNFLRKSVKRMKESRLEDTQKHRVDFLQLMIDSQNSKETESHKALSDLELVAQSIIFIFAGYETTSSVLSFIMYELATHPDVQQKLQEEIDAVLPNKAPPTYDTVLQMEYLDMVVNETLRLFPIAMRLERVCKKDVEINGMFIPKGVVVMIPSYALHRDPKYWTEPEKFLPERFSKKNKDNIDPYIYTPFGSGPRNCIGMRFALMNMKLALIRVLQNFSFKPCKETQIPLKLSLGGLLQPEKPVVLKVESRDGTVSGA
T5 sequence (P33261 whole entry): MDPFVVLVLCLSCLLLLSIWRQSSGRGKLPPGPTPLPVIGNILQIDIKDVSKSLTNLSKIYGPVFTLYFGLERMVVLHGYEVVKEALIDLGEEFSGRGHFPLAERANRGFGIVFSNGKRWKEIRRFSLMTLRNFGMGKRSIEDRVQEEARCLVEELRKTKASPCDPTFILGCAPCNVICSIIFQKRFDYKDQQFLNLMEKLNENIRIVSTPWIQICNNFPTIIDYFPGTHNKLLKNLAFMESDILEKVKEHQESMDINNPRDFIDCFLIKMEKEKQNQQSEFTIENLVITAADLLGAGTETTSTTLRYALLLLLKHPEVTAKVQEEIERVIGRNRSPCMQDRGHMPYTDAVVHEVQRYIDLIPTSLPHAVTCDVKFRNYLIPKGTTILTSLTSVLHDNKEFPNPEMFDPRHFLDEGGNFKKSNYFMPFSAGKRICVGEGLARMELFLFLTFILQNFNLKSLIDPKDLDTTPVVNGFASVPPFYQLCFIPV
T4 sequence (P11712 whole entry): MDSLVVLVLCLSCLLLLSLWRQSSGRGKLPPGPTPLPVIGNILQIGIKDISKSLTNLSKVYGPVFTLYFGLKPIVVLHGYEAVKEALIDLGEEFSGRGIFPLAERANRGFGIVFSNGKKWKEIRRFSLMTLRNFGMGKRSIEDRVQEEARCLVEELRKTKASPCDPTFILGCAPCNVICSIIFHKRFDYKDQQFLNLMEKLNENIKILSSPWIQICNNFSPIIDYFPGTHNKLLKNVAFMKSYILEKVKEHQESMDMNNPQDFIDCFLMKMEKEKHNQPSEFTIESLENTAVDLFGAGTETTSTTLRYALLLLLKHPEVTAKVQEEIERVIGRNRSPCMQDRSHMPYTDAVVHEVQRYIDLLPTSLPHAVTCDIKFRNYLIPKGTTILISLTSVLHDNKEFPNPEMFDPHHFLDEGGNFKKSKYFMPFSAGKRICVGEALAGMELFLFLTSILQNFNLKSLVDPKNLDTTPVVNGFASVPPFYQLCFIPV
T1 sequence (P41597 whole entry, species assumed): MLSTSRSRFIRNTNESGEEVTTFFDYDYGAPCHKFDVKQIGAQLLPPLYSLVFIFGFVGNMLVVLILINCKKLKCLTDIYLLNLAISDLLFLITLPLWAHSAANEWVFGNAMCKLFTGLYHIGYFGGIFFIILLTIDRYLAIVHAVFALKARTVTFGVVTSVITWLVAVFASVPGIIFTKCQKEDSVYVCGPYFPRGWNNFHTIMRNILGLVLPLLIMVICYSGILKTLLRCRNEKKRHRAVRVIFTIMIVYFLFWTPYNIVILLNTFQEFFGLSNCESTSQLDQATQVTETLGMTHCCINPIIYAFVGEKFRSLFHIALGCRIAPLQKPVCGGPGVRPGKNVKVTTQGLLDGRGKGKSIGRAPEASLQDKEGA
T2 sequence (P51681 whole entry, species assumed): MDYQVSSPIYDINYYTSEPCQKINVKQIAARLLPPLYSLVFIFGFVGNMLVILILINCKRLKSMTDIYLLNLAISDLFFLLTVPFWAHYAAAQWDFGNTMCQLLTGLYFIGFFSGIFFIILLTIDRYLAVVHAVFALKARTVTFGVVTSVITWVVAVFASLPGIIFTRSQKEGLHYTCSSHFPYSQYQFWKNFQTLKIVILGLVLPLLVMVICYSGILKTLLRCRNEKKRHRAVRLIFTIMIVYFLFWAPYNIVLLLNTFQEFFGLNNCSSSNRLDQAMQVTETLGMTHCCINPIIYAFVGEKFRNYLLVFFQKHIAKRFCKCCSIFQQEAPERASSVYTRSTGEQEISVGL

One may read the IC50 as the point on the concentration scale where inhibition reaches its midpoint. As usually defined, the clearance is the volume of plasma or blood freed of the substance per unit of time. Read a high clearance as efficient removal. A word on the half-life: it is how long it takes for the measured level to halve. Higher therefore signals slow decline. As a reminder, the bioavailability is dose-corrected exposure relative to a reference, in per cent. A higher bioavailability goes with good availability. `CCCCOCCOc1ccc(-c2ccc(OC)c(/C=C/C(=O)Nc3ccc([S@+]([O-])Cc4c(C)ncn4CC)cc3)c2)cc1` [WX079]: the half-maximal inhibitory concentration (IC50) at CCR2 was 0.0056 µM; at CCR5, 0.0058 µM; against CYP1A2, over 50 µM; against CYP2C9, over 50 µM; on CYP2C19, over 50 µM; on CYP2D6, over 50 µM. Half-maximal inhibition at CYP3A4 (IC50) required 28.3 µM. The molecule also displayed a clearance in series [1] (setting [3]) of 0.224 mL/min/kg. In series [1] (setting [3]), this molecule gave a half-life of 9.47 h. The bioavailability in series [1] (male, Sprague-Dawley (SD), plasma, oral 10 mg/kg vs intravenous 2 mg/kg) is 32.6%. Besides, the “Area Under a Curve (0-inf)” value in series [1] (intravenous injection 2 mg/kg) was determined as 255.072 µM·h. Besides, in series [1] (oral 10 mg/kg), the “Area Under a Curve (0-inf/0-last)” value is 404.142 µM·h. Moreover, the Peak time in [1] (oral 10 mg/kg) is recorded as 3.0 h. The “Oral plasma system exposure (AUC0-inf) as multiple of the reference compound” value in series [1] (oral, relative to Cenicriviroc) stood at 12.6 times. In addition, the “Plasma clearance as percent of that of the reference compound” value in series [1] (relative to Cenicriviroc) is on record as 14%. Moreover, in series [2], the “Risk of inhibiting isoenzymes of human liver microsomal cytochrome P450 (conclusion in words)” value is “no risk on inhibiting five isoenzymes”.
